Measured values from patent publication US9040545B2, “Heterocyclyl pyrazolopyrimidine analogues as selective JAK inhibitors” (Cellzome Limited, priority 2010, dated 2015).

Target: T1, JAK3 (Homo sapiens, UniProt P52333)
T1 construct: endogenous in cells; host or cells: mixed Molt4/Ramos lysate (1:2)
T1 sequence (P52333 1-1124): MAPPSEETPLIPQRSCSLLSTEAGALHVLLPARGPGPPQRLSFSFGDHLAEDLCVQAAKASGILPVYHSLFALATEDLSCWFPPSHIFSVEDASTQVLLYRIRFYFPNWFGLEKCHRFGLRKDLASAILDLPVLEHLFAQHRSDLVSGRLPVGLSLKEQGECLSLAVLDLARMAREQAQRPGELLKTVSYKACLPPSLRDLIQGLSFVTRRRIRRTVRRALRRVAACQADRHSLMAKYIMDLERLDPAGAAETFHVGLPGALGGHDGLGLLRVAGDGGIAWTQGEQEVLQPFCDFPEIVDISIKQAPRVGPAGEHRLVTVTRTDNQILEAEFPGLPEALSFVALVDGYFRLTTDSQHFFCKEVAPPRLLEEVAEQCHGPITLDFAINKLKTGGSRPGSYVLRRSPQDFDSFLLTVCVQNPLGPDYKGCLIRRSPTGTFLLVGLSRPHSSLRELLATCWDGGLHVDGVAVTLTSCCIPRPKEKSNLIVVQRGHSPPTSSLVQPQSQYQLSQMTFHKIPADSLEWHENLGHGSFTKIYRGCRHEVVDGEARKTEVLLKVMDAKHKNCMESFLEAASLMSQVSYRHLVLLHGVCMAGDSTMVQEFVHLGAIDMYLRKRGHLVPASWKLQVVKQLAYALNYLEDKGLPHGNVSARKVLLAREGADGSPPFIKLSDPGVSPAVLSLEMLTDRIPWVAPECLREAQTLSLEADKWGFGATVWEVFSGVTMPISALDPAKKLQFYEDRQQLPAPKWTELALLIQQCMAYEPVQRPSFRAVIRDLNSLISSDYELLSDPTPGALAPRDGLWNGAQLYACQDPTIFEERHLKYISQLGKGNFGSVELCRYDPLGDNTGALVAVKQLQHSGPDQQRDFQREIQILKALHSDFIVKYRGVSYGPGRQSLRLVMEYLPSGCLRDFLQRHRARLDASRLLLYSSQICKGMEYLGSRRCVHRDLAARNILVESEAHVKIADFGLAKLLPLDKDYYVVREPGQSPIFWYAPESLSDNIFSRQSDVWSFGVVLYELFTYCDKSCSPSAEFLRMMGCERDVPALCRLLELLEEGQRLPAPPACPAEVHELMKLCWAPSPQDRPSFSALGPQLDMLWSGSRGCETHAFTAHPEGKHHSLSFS
Experiment: Kinobeads assay, JAK3
Type: binding
Conditions: mixed Molt4/Ramos lysate, read-out: Inhibition values (IC50) JAK3
Method: The compounds of the present invention as described in the previous examples were tested in a Kinobeads™ assay as described for ZAP-70 (WO-A 2007/137867). Briefly, test compounds (at various concentrations) and the affinity matrix with the immobilized aminopyrido-pyrimidine ligand 24 were added to cell lysate aliquots and allowed to bind to the proteins in the lysate sample. After the incubation time the beads with captured proteins were separated from the lysate. Bound proteins were then eluted and the presence of JAK2 and JAK3 was detected and quantified using specific antibodies in a dot blot procedure and the Odyssey infrared detection system. Dose response curves for individual kinases were generated and IC50 values calculated. Kinobeads™ assays for ZAP-70 (WO-A 2007/137867) and for kinase selectivity profiling (WO-A 2006/134056) have been previously described.
The affinity matrix was washed two times with 15 mL of 1×DP buffer containing 0.2% NP40 (IGEPAL® CA-630, Sigma, #I3021) and then resuspended in 1×DP buffer containing 0.2% NP40 (3% beads slurry).
5×DP buffer 250 mM Tris-HCl pH 7.4, 25% Glycerol, 7.5 mM MgCl2, 750 mM NaCl, 5 mM Na3VO4; filter the 5×DP buffer through a 0.22 μm filter and store in aliquots at −80° C. The 5×DP buffer is diluted with H2O to 1×DP buffer containing 1 mM DTT and 25 mM NaF.
Stock solutions of test compounds were prepared in DMSO. In a 96 well plate 30 μL solution of diluted test compounds at 5 mM in DMSO were prepared. Starting with this solution a 1:3 dilution series (9 steps) was prepared. For control experiments (no test compound) a buffer containing 2% DMSO was used.
Molt4 cells (ATCC catalogue number CRL-1582) and Ramos cells (ATCC catalogue number CRL-1596) were grown in 1 L Spinner flasks (Integra Biosciences, #182101) in suspension in RPMI 1640 medium (Invitrogen, #21875-034) supplemented with 10% Fetal Bovine Serum (Invitrogen) at a density between 0.15×106 and 1.2×10^6 cells/mL. Cells were harvested by centrifugation, washed once with 1×PBS buffer (Invitrogen, #14190-094) and cell pellets were frozen in liquid nitrogen and subsequently stored at −80° C. Cells were homogenized in a Potter S homogenizer in lysis buffer: 50 mM Tris-HCl, 0.8% NP40, 5% glycerol, 150 mM NaCl, 1.5 mM MgCl2, 25 mM NaF, 1 mM sodium vanadate, 1 mM DTT, pH 7.5. One complete EDTA-free tablet (protease inhibitor cocktail, Roche Diagnostics, 1873580) per 25 mL buffer was added. The material was dounced 10 times using a mechanized POTTER S, transferred to 50 mL falcon tubes, incubated for 30 minutes on ice and spun down for 10 minutes at 20,000 g at 4° C. (10,000 rpm in Sorvall SLA600, precooled). The supernatant was transferred to an ultracentrifuge (UZ)-polycarbonate tube (Beckmann, 355654) and spun for 1 hour at 100,000 g at 4° C. (33.500 rpm in Ti50.2, precooled). The supernatant was transferred again to a fresh 50 mL falcon tube, the protein concentration was determined by a Bradford assay (BioRad) and samples containing 50 mg of protein per aliquot were prepared. The samples were immediately used for experiments or frozen in liquid nitrogen and stored frozen at −80° C.
Cell lysate (approximately 50 mg protein per plate) was thawed in a water bath at room temperature and then stored on ice. To the thawed cell lysate 1×DP 0.8% NP40 buffer containing protease inhibitors (1 tablet for 25 mL buffer; EDTA-free protease inhibitor cocktail; Roche Diagnostics 1873580) was added in order to reach a final protein concentration of 10 mg/mL total protein. The diluted cell lysate was stored on ice. Mixed Molt4/Ramos lysate was prepared by combining one volume of Molt4 lysate and two volumes of Ramos lysate (ratio 1:2).
To a 96 well filter plate (Multiscreen HTS, BV Filter Plates, Millipore #MSBVN1250) were added per well: 100 μL affinity matrix (3% beads slurry), 3 μL of compound solution, and 50 μL of diluted lysate. […]

| Compound | IC50 [nM] |
| --- | --- |
| Cn1cc(Nc2ncc3cnn(Cc4cccc(N5CCNCC5)c4)c3n2)cn1 [Example 22, N-(1-Methyl-1H-pyrazol-4-yl)-1-(3-(piperazin-1-yl)benzyl)-1H-pyrazolo[3,4-d]pyrimidin-6-amine] | < 100 |
| CNC(=O)CCn1cc(Nc2ncc3cnn(Cc4cccc(N5CCOCC5)c4)c3n2)cn1 [Example 24, N-Methyl-3-(4-((1-(3-morpholinobenzyl)-1H-pyrazolo[3,4-d]pyrimidin-6-yl)amino)-1H-pyrazol-1-yl)propanamide] | < 100 |
| Cn1cc(Nc2ncc3cnn(Cc4cccc(N5CC6CCC(C5)O6)c4)c3n2)cn1 [Example 26] | < 100 |
| Cn1cc(Nc2ncc3cnn(Cc4cccc(N5CCOCC5=O)c4)c3n2)cn1 [Example 27, 4-(3-((6-((1-Methyl-1H-pyrazol-4-yl)amino)-1H-pyrazolo[3,4-d]pyrimidin-1-yl)methyl)phenyl)morpholin-3-one] | < 100 |
| O=C1COCCN1c1cccc(Cn2ncc3cnc(Nc4cnn(CCO)c4)nc32)c1 [Example 29, 4-(3-((6-((1-(2-Hydroxyethyl)-1H-pyrazol-4-yl)amino)-1H-pyrazolo[3,4-d]pyrimidin-1-yl)methyl)phenyl)morpholin-3-one] | < 100 |
| CN(C)CC1(Cn2cc(Nc3ncc4cnn(Cc5cccc(N6CCOCC6)c5)c4n3)cn2)COC1 [Example 31, N-(1-((3-((Dimethylamino)methyl)oxetan-3-yl)methyl)-1H-pyrazol-4-yl)-1-(3-morpholinobenzyl)-1H-pyrazolo[3,4-d]pyrimidin-6-amine] | < 100 |
| CC(CN(C)C)Cn1cc(Nc2ncc3cnn(Cc4cccc(N5CCOCC5)c4)c3n2)cn1 (centres unmarked) [Example 32, N-(1-(3-(Dimethylamino)-2-methylpropyl)-1H-pyrazol-4-yl)-1-(3-morpholinobenzyl)-1H-pyrazolo[3,4-d]pyrimidin-6-amine] | < 100 |
| NCCCn1cc(Nc2ncc3cnn(Cc4cccc(N5CCOCC5)c4)c3n2)cn1 [Example 34, N-(1-(3-Aminopropyl)-1H-pyrazol-4-yl)-1-(3-morpholinobenzyl)-1H-pyrazolo[3,4-d]pyrimidin-6-amine] | < 100 |
| O=C(CCn1cc(Nc2ncc3cnn(Cc4cccc(N5CCOCC5)c4)c3n2)cn1)NC1CC1 [Example 35, N-Cyclopropyl-3-(4-((1-(3-morpholinobenzyl)-1H-pyrazolo[3,4-d]pyrimidin-6-yl)amino)-1H-pyrazol-1-yl)propanamide] | < 100 |

More lines, now with the values ahead:

| IC50 [nM] | Compound |
| --- | --- |
| < 100 | FC(F)Cn1cc(Nc2ncc3cnn(Cc4cccc(N5CCOCC5)c4)c3n2)cn1 [Example 23, N-(1-(2,2-Difluoroethyl)-1H-pyrazol-4-yl)-1-(3-morpholinobenzyl)-1H-pyrazolo[3,4-d]pyrimidin-6-amine] |
| < 100 | Cn1cc(Nc2ncc3cnn(Cc4cccc(N5CCS(=O)(=O)CC5)c4)c3n2)cn1 [Example 25, 4-(3-((6-((1-Methyl-1H-pyrazol-4-yl)amino)-1H-pyrazolo[3,4-d]pyrimidin-1-yl)methyl)phenyl)thiomorpholine 1,1-dioxide] |
| < 100 | CN(C)CCCn1cc(Nc2ncc3cnn(Cc4cccc(N5CCOCC5=O)c4)c3n2)cn1 [Example 28, 4-(3-((6-((1-(3-(Dimethylamino)propyl)-1H-pyrazol-4-yl)amino)-1H-pyrazolo[3,4-d]pyrimidin-1-yl)methyl)phenyl)morpholin-3-one] |
| < 100 | O=C1CCCN1CCCn1cc(Nc2ncc3cnn(Cc4cccc(N5CCOCC5)c4)c3n2)cn1 [Example 30, 1-(3-(4-((1-(3-Morpholinobenzyl)-1H-pyrazolo[3,4-d]pyrimidin-6-yl)amino)-1H-pyrazol-1-yl)propyl)pyrrolidin-2-one] |
| < 100 | CN(C)CC(O)Cn1cc(Nc2ncc3cnn(Cc4cccc(N5CCOCC5)c4)c3n2)cn1 (centres unmarked) [Example 33, 1-(Dimethylamino)-3-(4-((1-(3-morpholinobenzyl)-1H-pyrazolo[3,4-d]pyrimidin-6-yl)amino)-1H-pyrazol-1-yl)propan-2-ol] |
